Values after ≈ are worked out from the molar mass of the structure shown. Values joined by “and” are separate entries in the source; they are usually repeats but may differ in a detail not shown here. Identical values can stand only once. Like-named read-outs stand apart in the source and are kept apart here.
Assays:
[1] = system: Enterococcus faecalis J 14365/08; assay: Antibacterial screening, microdilution broth panel method; type: cell-based; conditions: J14365/08; Enterococcus faecalis J 14365/08, pH 7.0; read-out: Minimum Inhibitory Concentrations Bacteria, EF
[2] = system: Mycobacterium tuberculosis H37Rv; assay: Antimycobacterial screening, microdilution broth panel method with resazurin (Alamar blue); type: cell-based; conditions: for MIC: read-out: Minimum Inhibitory Concentrations M. tbc H37Rv
[3] = system: Mycobacterium smegmatis CCM 4622 (ATCC 607); assay: Mycobacterium smegmatis screening, microdilution broth panel method with resazurin; type: cell-based; conditions: Middlebrook 7H9 broth, 48 h incubation; for MIC: Mycolicibacterium smegmatis, 48 h, read-out: Minimum Inhibitory Concentrations M. smegmatis
[4] = Experimental lipophilicity logk by RP-HPLC; conditions: methanol 70% / water 30%, C18
Description: These values were compared with logk, an experimentally measured lipophilicity parameter derived from retention times acquired by RP-HPLC.
Experimental lipophilicity parameter logk values were determined using HPLC method. […] The separation process was handled by Agilent ChemStation, version B.04.02 extended with spectral module (Agilent Technologies Inc.). A mixture of methanol (HPLC grade, 70%) and water (HPLC-Milli-Q Grade, 30%) was used as mobile phase. The total flow rate of the column was set to 1.0 mL/min, injection 20 μL, column temperature 30 °C. 210 nm as detection wavelength and 270 nm as monitor wavelength were chosen. A methanolic solution of KI was used for the determination of dead time (TD). Retention times (TR) of synthesized compounds were measured in minutes. Capacity factors k were calculated according to formula k = (TR − TD)/TD, where TR is the retention time of the solute and TD denotes the dead time obtained via an unretained analyte (KI). Logk, which was calculated from the capacity factor k, is used as the lipophilicity index.

[5] = system: M. tbc H37Rv; conditions: cited from earlier work
[6] = system: eight common bacterial strains; assay: Antibacterial screening, microdilution broth panel method; type: cell-based; conditions: all tested bacterial strains, pH 7.0; read-out: Minimum Inhibitory Concentrations Bacteria
[7] = in vitro; conditions: human, IC50 (cytotoxicity), HepG2, 24 h incubation
[8] = system: HepG2 cell line; conditions: read-out: IC50 (cytotoxicity); HepG2, 24 h incubation
[9] = system: M. kansasii My 235/80; assay: Antimycobacterial screening, microdilution broth panel method with resazurin (Alamar blue); type: cell-based; conditions: Mycobacterium kansasii, MY235/80; pH 5.6, 5–7 days incubation
[10] = system: Staphylococcus aureus CCM 4516/08; assay: Antibacterial screening, microdilution broth panel method; type: cell-based
[11] = Mycobacterium tuberculosis, H37RV, 336 h, pH 5.6, Sula's broth pH 5.6, 14 days incubation
[12] = Mycobacterium tuberculosis, H37RV, 336 h, pH 5.6, Sula's broth pH 5.6, 14 days incubation, n.a. = not active

SMILES | MIC [2, 11] | MIC [3] | Logk [4] | MIC [6] | other results
COc1ccc(CNc2nccnc2C(N)=O)c(OC)c1 [Compound 14, 3-[(2,4-Dimethoxybenzyl)amino]pyrazine-2-carboxamide] | > 100 µg/mL | ≥ 500 µg/mL | 0.274 | – | MIC [1]: 62.5 µM (≈ 18 µg/mL)
NC(=O)c1cnccn1 [PZA, pyrazinamide] | 12.5 µg/mL | ≥ 500 µg/mL | – | – | MIC [2, 12]: 102 µM
Cc1nc(C#N)c(C#N)nc1NCc1ccc(N)cc1 [Compound 9-C] | – | – | – | – | MIC against M. tbc H37Rv ([5]; series C): 25 µg/mL and 95 µM
NC(=O)c1nccnc1NCc1ccc(Cl)c(Cl)c1 [Compound 3, 3-[(3,4-Dichlorobenzyl)amino]pyrazine-2-carboxamide] | > 100 µg/mL | ≥ 500 µg/mL | 0.470 | > 500 µM | –
N#Cc1cnc(C(N)=O)c(NCc2cccc(C(F)(F)F)c2)n1 [Compound 4-A] | – | – | – | – | MIC against M. tbc H37Rv ([5]; series A and B): 25 µg/mL and 78 µM
Cc1nc(C#N)c(C#N)nc1NCc1cccc(C(F)(F)F)c1 [Compound 4-C] | – | – | – | – | MIC against M. tbc H37Rv ([5]; series C): 12.5 µg/mL and 39 µM
NC(=O)c1nccnc1NCc1ccc(N)cc1 [Compound 9, 3-[(4-Aminobenzyl)amino]pyrazine-2-carboxamide] | – | 250 µg/mL (≈ 1030 µM) | −0.313 | > 500 µM | IC50 [7]: > 750 µM
N#Cc1cnc(C#N)c(NCc2ccccc2)n1 [Compound 1-B] | – | – | – | – | MIC against M. tbc H37Rv ([5]; series A and B): 12.5 µg/mL (≈ 53.1 µM)
NC(=O)c1nccnc1NCc1ccccc1F [Compound 11, 3-[(2-Fluorobenzyl)amino]pyrazine-2-carboxamide] | > 100 µg/mL | ≥ 500 µg/mL | 0.248 | – | MIC [1]: 125 µM (≈ 30.8 µg/mL)
N#Cc1cnc(C(N)=O)c(NCc2ccc(N)cc2)n1 [Compound 9-A] | – | – | – | – | MIC against M. tbc H37Rv ([5]; series A and B): 12.5 µg/mL and 47 µM
NC(=O)c1nccnc1NCc1ccccc1 [Compound 1, 3-(Benzylamino)pyrazine-2-carboxamide] | ≥ 100 µg/mL | ≥ 500 µg/mL | 0.215 | > 500 µM | –
COc1ccc(CNc2nccnc2C(N)=O)cc1 [Compound 7, 3-[(4-Methoxybenzyl)amino]pyrazine-2-carboxamide] | > 100 µg/mL | ≥ 500 µg/mL | 0.194 | > 500 µM | –
CO[C@H]1/C=C/O[C@@]2(C)Oc3c(C)c(O)c4c(O)c(c(/C=N/N5CCN(C)CC5)c(O)c4c3C2=O)NC(=O)/C(C)=C\C=C\[C@H](C)[C@H](O)[C@@H](C)[C@@H](O)[C@@H](C)[C@H](OC(C)=O)[C@@H]1C [RFM, rifampicin, reference compound] | – | 0.39 µg/mL (≈ 0.474 µM) | – | – | Minimum Inhibitory Concentrations M. smegmatis [3]: 0.78 to 1.56 µg/mL
NC(=O)c1nccnc1NCc1cccc(Cl)c1 [Compound 2, 3-[(3-Chlorobenzyl)amino]pyrazine-2-carboxamide] | > 100 µg/mL | ≥ 500 µg/mL | 0.373 | > 500 µM | –
NC(=O)c1nccnc1NCc1ccc(Cl)cc1 [Compound 5, 3-[(4-Chlorobenzyl)amino]pyrazine-2-carboxamide] | > 100 µg/mL | 250 µg/mL (≈ 952 µM) | 0.373 | – | –
O=C(O)c1cn(C2CC2)c2cc(N3CCNCC3)c(F)cc2c1=O [CPX, ciprofloxacin, reference compound] | – | 0.1 µg/mL (≈ 0.302 µM) | – | – | Minimum Inhibitory Concentrations M. smegmatis [3]: 0.10 to 0.20 µg/mL
Cc1ccc(CNc2nccnc2C(N)=O)cc1 [Compound 8, 3-[(4-Methylbenzyl)amino]pyrazine-2-carboxamide] | 1.56 to 12.5 µg/mL | ≥ 500 µg/mL | 0.441 | > 500 µM | MIC [2, 12]: 6 to 42 µM; Minimum Inhibitory Concentrations M. tbc H37Rv ([2]; Sula's broth pH 5.6, 14 days incubation): 1.56 µg/mL; MIC ([2]; Sula's broth pH 5.6, 14 days incubation, n.a. = not active): 6 µM; IC50 [8]: > 250 µM; IC50 [7]: ≥ 250 µM
Cc1ccccc1CNc1nccnc1C(N)=O [Compound 6, 3-[(2-Methylbenzyl)amino]pyrazine-2-carboxamide] | > 100 µg/mL | ≥ 500 µg/mL | 0.320 | > 500 µM | –
NC(=O)c1nccnc1NCc1cccc([N+](=O)[O-])c1 [Compound 15, 3-[(3-Nitrobenzyl)amino]pyrazine-2-carboxamide] | > 100 µg/mL | ≥ 500 µg/mL | 0.101 | > 500 µM | –
N#Cc1cnc(C#N)c(NCc2ccc(N)cc2)n1 [Compound 9-B] | – | – | – | – | MIC against M. tbc H37Rv ([5]; series A and B): 25 µg/mL and 100 µM
Cc1ccc(CNc2nc(C#N)c(C#N)nc2C)cc1 [Compound 8-C] | – | – | – | – | MIC against M. tbc H37Rv ([5]; series C): 25 µg/mL and 95 µM
Cc1nc(C#N)c(C#N)nc1NCc1ccccc1 [Compound 1-C] | – | – | – | – | MIC against M. tbc H37Rv ([5]; series C): 25 µg/mL and 100 µM
Cc1ccc(CNc2nc(C#N)cnc2C(N)=O)cc1 [Compound 8-A] | – | – | – | – | MIC against M. tbc H37Rv ([5]; series A and B): 12.5 µg/mL and 47 µM
Cc1ccc(CNc2nc(C#N)cnc2C#N)cc1 [Compound 8-B] | – | – | – | – | MIC against M. tbc H37Rv ([5]; series A and B): 6.25 µg/mL and 25 µM
NC(=O)c1nccnc1NCc1ccccc1Cl [Compound 10, 3-[(2-Chlorobenzyl)amino]pyrazine-2-carboxamide] | > 100 µg/mL | ≥ 500 µg/mL | 0.441 | > 500 µM | –
NNC(=O)c1ccncc1 [INH, isoniazid, reference compound] | 0.39 µg/mL | – | – | – | MIC [2, 12]: 3 µM; MIC [9]: 1.56 µg/mL to 12.5 µg/mL and 11 µM to 91 µM; Minimum Inhibitory Concentrations M. smegmatis [3]: 7.81 to 15.63 µg/mL; Minimum Inhibitory Concentrations M. smegmatis ([3]; listed as isoniazid): 15.63 µg/mL
NC(=O)c1nccnc1NCc1cccc(C(F)(F)F)c1 [Compound 4, 3-[(3-Trifluoromethylbenzyl)amino]pyrazine-2-carboxamide] | – | 250 µg/mL (≈ 844 µM) | 0.403 | – | MIC [9]: 25 µg/mL and 84 µM; Minimum Inhibitory Concentrations Bacteria, SA ([10]; Staphylococcus aureus CCM 4516/08, pH 7.0): 31.25 SA ^a µM; MIC ([10]; Staphylococcus aureus, CCM4516, pH 7, Staphylococcus aureus CCM 4516/08, pH 7.0, read-out: Minimum Inhibitory Concentrations Bacteria, SA): 31.2 µM (≈ 9.26 µg/mL); IC50 [7]: 76.5 µM
NC(=O)c1nccnc1NCc1ccccc1C(F)(F)F [Compound 13, 3-[(2-Trifluoromethylbenzyl)amino]pyrazine-2-carboxamide] | > 100 µg/mL | ≥ 500 µg/mL | 0.495 | – | MIC [1]: 125 µM (≈ 37 µg/mL)
NC(=O)c1nccnc1NCc1ccc(C(F)(F)F)cc1 [Compound 12, 3-[(4-Trifluoromethylbenzyl)amino]pyrazine-2-carboxamide] | – | ≥ 500 µg/mL | 0.502 | – | MIC [1]: 125 µM (≈ 37 µg/mL); IC50 [7]: 57.3 µM

From PMC6155776, “Synthesis of Novel Pyrazinamide Derivatives Based on 3-Chloropyrazine-2-carboxamide and Their Antimicrobial Evaluation” (Molecules : A Journal of Synthetic Chemistry and Natural …, 2017)
